# Test results: patent US20230414543A1, “METHOD OF FEEDING A GESTATING OR LACTATING ANIMAL” (NUTRECO IP ASSETS B.V., priority 2021, published 2023)
# Read-outs that look alike come from different tables or passages of the source.
# Experiments:
# [1] = system: gestating or lactating sows and their litters
# Excerpt: (§1) From day 109 of gestation up to parturition (day 115 of gestation), and subsequently through the whole period of lactation from parturition until weaning (25 days after parturition), sows of various parities were fed a top dress of 100 g/day on top of their normal diet. […] The placebo top dress was formulated from barley, wheat, corn, wheat bran, molasses, vegetable oil, and sugar.
# (§2) During gestation, sows were fed the normal diet at approximately 3 kg/day. In lactation, all sows were fed the normal diet at an increasing level following a set feeding scheme, starting from 3 kg after parturition, and increasing by 0.5 kg each day to the maximum intake capacity of each sow. The allowance was capped at a maximum of 9 kg/day.
# At parturition, piglets were weighed immediately as they were born. One day after parturition, litter size was standardized by cross-fostering, to 14 or 15 piglets per litter. Piglets were only cross-fostered to sows within the same treatment. As a measure of milk production, the weight gain of the litter was measured at 7 days after parturition, and again at 21 days of lactation, just before piglets were weaned (24 days of lactation). […] When analyzing the data, litter weight gain was corrected for litter size.
# [2] = system: gestating or lactating sows and their litters; remark: listed apart in the source
# Excerpt: as §1, with “80” for “109”, “sugar. […] The ingredient (40%) was embedded in a matrix of hydrogenated fat (50%) and calcium carbonate (10%).” for “sugar.”
# as §2
# At parturition, piglets were weighed immediately as they were born, and again at 24 h after birth, to estimate colostrum intake based on the algorithm developed by Theil et al. (Mechanistic model to predict colostrum intake based on deuterium oxide dilution technique data and impact of gestation and prefarrowing diets on piglet intake and sow yield of colostrum. J. Anim. Sci. 2014, 92:5507-5519). One day after parturition, when 24-h weights had been recorded, litter size was standardized by cross-fostering, to 14 or 15 piglets per litter. […] As a measure of milk production, the weight gain of the litter was measured at 7 days after parturition, and again at 24 days of lactation, just before piglets were weaned. […] When analyzing the data, litter weight gain was corrected for litter size.
# [3] = system: colostrum of sows
# Excerpt: as §1, with “80” for “109”, “sugar. […] The ingredient (40%) was embedded in a matrix of hydrogenated fat (50%) and calcium carbonate (10%).” for “sugar.”
# Colostrum samples were collected just after the first piglet was born and were analyzed for total solids, protein, and lactose, using Brix refractometry. Brix refractometry is a method to measure the concentration of solutes in a solution, based on the refraction of light, and is widely used to analyze milk samples in the dairy industry (for example: Lokke M M, Engelbrecht R, Wiking L. Covariance structures of fat and protein influence the estimation of IgG in bovine colostrum. Journal of Dairy Research (2016), 83: 58-66). […] Total solids is the sum of protein, fat, and lactose.
# The total output of nutrients (protein, lactose, or total solids) per sow was calculated by multiplying the volume of colostrum per sow (Table 2) with the concentration (Table 3) of each nutrient.
# [4] = corrected for litter size, 4 g/day, day 80 of gestation until weaning
# [5] = piglets, 4 g/day, day 80 of gestation until weaning
# [6] = Brix refractometry, sample just after first piglet was born
# [7] = volume of colostrum × concentration
substance,measurement,setting,value
calcium gluconate,Litter weight gain day 1-day 21,"[1]; 4 g/day, day 109 of gestation until weaning",67.1 kg
same,"Litter size at weaning, difference compared to placebo",[1]; piglets per litter,0.4
same,Survival of piglets throughout the whole lactation period compared to placebo,[1]; result in words,greater
same,"Litter gain, difference compared to placebo",[1]; when correcting for the number of piglets weaned,2.2 kg
same,"Litter weight gain d1-d7, kg per litter",[2]; [4],16.9 kg per litter
same,"Litter weight gain d1-d24, kg per litter",[2]; [4],70.0 kg per litter
same,Total colostrum intake per litter,"[2]; corrected for litter size, estimated from piglet weights at birth and 24 h (Theil et al.), 4 g/day calcium gluconate in fat matrix, top dress from day 80 of gestation until weaning",5565 g
same,Increase of litter weight gain compared to placebo,[2]; first seven days of lactation,7.6%
same,"Litter size at weaning, difference compared to placebo",[2]; piglets per litter,0.3
same,Numbers weaned,"[2]; piglets per litter, 4 g/day, day 80 of gestation until weaning",13.2
same,Neonatal mortality up to day 7,[2]; [5],8.4%
same,Pre-wean mortality,[2]; [5],9.6%
same,Neonatal survival compared to placebo,[2]; result in words,greater
same,Survival throughout the whole lactation period compared to placebo,[2]; result in words,greater
same,Increase of litter weight gain compared to placebo,[2]; whole lactation period,5%
same,Concentration of solutes in colostrum: Lactose,[3]; [6],2.4%
same,Concentration of solutes in colostrum: Protein,[3]; [6],17.5%
same,"Higher output of total solids, total protein and lactose compared to placebo",[3]; colostrum,6-10%
same,Concentration of solutes in colostrum: Total solids,"[3]; total of fat, protein and lactose, Brix refractometry, sample just after first piglet was born",25.0%
same,Total output of nutrients per sow: Total lactose per sow,[3]; [7],136 g
same,Total output of nutrients per sow: Total protein per sow,[3]; [7],1008 g
same,Total output of nutrients per sow: Total solids per sow,[3]; [7],1437 g
